Residues, ends and D or L forms follow the SMILES beside them.
Each compound was assayed against human NMUR2 receptor (Homo sapiens, UniProt Q9GZQ4) (assay: Radioligand binding competition assay (RLB), human NMUR2 receptor binding (SPA, [125I]-Neuromedin U-25)). Details: CHO-K1 hNMUR2 cell membranes, 4 hours at RT.
Set-up: host or cells: CHO-K1
Text: Example 1: Radioligand Binding Competition Assay (RLB) Human NMUR2 Receptor Binding
The test is based on membranes prepared from a Human NMUR2/Apoaequorin Stable Cell Line (Creative Biogene, Cat. No. CSC-RG1309).
Cell Line Description: CHO-NMUR2 cell line is clonally derived from a CHO-K1 cell line, which has been transfected with a bicistronic expression plasmid containing the sequence coding for the human neuromedin U receptor 2 (AF242874.1). MOSAIC-ID: CL16550616.
Membrane preparation: Cells were broken by nitrogen cavitation (900 psi, 1 hour). Intact cells were removed by centrifugation (400 rcf (relative centrifugal force), 10 minutes, 4° C.) before the crude membrane fraction was collected by ultracentrifugation (20.000 rcf, 1 hour, 4° C.).
2) Human NMUR2 Receptor Binding Assay (Radioligand: [125I]-Neuromedin U-25 (Human))
In this Scintillation Proximity Assay (SPA) design, the membranes immobilize directly to the PVT-WGA-PEI type A beads (polyethyleneimine treated polyvinyltoluene beads coupled to wheatgerm agglutinin, Perkin Elmer) via interactions of wheat germ agglutinate and glycosylated membrane structures. Thereby the radioactively la-belled ligand, bound to NMUR2 receptors on the membrane, comes in close proximity to the solid scintillator of the PVT bead. Radioactive human neuromedin U-25 then stimulates the scintillant to emit light. In contrast, radioligand not bound to the receptor is too distant from the bead to elicit a signal.
For the Scintillation Proximity Assay the CHO-K1 hNMUR2 cell membranes and SPA-beads are diluted to concentrations, which assure a robust signal to background ratio. The SPA incubation buffer consists of 25 mM Hepes (pH=7.0), 5 mM MgCl2, 1 mM CaCl2, 10 ug/mL Saponine and 0.1% bovine serum albumin and is used for all dilutions.
Final assay setup in 96-well plate: 20 μL of 10× test compound dilutions+40 μL of 5× [125l]-Neuromedin U-25 (1× approx. 30 pM; 2000 μCi/mmol)+60 μL membrane dilution (approx. 2.5 μg membrane protein)+80 μL SPA bead dilution (0.75 mg).
The assay is incubated for 4 hours at RT, including controls for specific binding where no displacer is added and non-specific binding by adding unlabeled hNMU-25 at 100 nM. Bound radioactivity is determined by scintillation counting (MicroBeta Trilux 1450, Perkin Elmer, detection of 125I decay). […] The system assumes one binding site with no relevant radioligand depletion (<10%) and that the binding is reversible and at equilibrium.

human NMUR2 receptor, sequence (Q9GZQ4 whole entry): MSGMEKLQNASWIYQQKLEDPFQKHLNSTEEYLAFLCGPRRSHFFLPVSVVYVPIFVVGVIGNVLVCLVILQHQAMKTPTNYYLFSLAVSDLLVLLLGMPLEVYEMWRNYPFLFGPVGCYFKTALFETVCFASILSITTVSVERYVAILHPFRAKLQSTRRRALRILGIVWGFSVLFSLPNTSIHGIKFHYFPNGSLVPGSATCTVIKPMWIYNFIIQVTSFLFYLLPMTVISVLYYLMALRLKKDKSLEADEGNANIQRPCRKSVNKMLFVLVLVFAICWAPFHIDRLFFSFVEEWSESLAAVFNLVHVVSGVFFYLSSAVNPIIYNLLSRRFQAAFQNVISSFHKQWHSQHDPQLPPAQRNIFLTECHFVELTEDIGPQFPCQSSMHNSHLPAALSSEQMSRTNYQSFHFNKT

| SMILES | Ki |
| --- | --- |
| CCCC[C@H](NC(=O)[C@H](CC(C)C)N(C)C(=O)[C@H](Cc1ccccc1)NC(=O)[C@H](Cc1ccc(O)cc1)NC(=O)CN1CCN(CCNC(=O)CN(C)C(=O)CN(C)C(=O)CN(C)C(=O)CN(C)C(=O)CN(C)C(=O)CN(C)C(=O)CN(C)C(=O)CN(C)C(=O)CN(C)C(=O)CC[C@H](NC(=O)CC[C@H](NC(=O)CC[C@H](NC(=O)CCCCCCCCCCCCCCCCC(=O)O)C(=O)O)C(=O)O)C(=O)O)CC1)C(=O)N[C@@H](CCN)C(=O)N1CCC[C@H]1C(=O)N[C@@H](CCCNC(=N)N)C(=O)NCC(N)=O [Compound 24, C18DA-gGlu3-Sar9-AEPipAc-Tyr-Phe-NMeLeu-Nle-Dbu-Pro-Arg-Gly-NH2] (HELM PEPTIDE1{[O=C(O)CCCCCCCCCCCCCCCCC(=O)[*:2]].[gGlu].[gGlu].[gGlu].[Sar].[Sar].[Sar].[Sar].[Sar].[Sar].[Sar].[Sar].[Sar].[O=C(CN1CCN(CCN[*:1])CC1)[*:2]].Y.F.[meL].[Nle].[Dab].P.R.G.[am]}$$$$V2.0) | 52.3 nM |
| CCCC[C@H](NC(=O)[C@H](CC(C)C)N(C)C(=O)[C@H](Cc1ccccc1)NC(=O)[C@H](Cc1ccc(O)cc1)NC(=O)CN1CCN(CCNC(=O)CN(C)C(=O)CN(C)C(=O)CN(C)C(=O)CN(C)C(=O)CN(C)C(=O)CN(C)C(=O)CN(C)C(=O)CN(C)C(=O)CN(C)C(=O)CN(C)C(=O)CN(C)C(=O)CN(C)C(=O)CN(C)C(=O)CN(C)C(=O)CN(C)C(=O)CC[C@H](NC(=O)CC[C@H](NC(=O)CC[C@H](NC(=O)CCCCCCCCCCCCCCCCCCC(=O)O)C(=O)O)C(=O)O)C(=O)O)CC1)C(=O)N[C@@H](CCCNC(=N)N)C(=O)N(C)[C@@H](C)C(=O)N[C@@H](CCCNC(=N)N)C(=O)NCC(N)=O [Compound 10, C20DA-gGlu3-Sar15-AEPipAc-Tyr-Phe-NMeLeu-Nle-Arg-NMeAla-Arg-Gly-NH2] (HELM PEPTIDE1{[O=C(O)CCCCCCCCCCCCCCCCCCC(=O)[*:2]].[gGlu].[gGlu].[gGlu].[Sar].[Sar].[Sar].[Sar].[Sar].[Sar].[Sar].[Sar].[Sar].[Sar].[Sar].[Sar].[Sar].[Sar].[Sar].[O=C(CN1CCN(CCN[*:1])CC1)[*:2]].Y.F.[meL].[Nle].R.[meA].R.G.[am]}$$$$V2.0) | 204 nM |
| CCCC[C@H](NC(=O)[C@H](CC(C)C)N(C)C(=O)[C@H](Cc1ccccc1)NC(=O)[C@H](Cc1ccc(O)cc1)NC(=O)CN1CCN(CCNC(=O)CN(C)C(=O)CN(C)C(=O)CN(C)C(=O)CN(C)C(=O)CN(C)C(=O)CN(C)C(=O)CN(C)C(=O)CN(C)C(=O)CN(C)C(=O)CN(C)C(=O)CN(C)C(=O)CN(C)C(=O)CC[C@H](NC(=O)CC[C@H](NC(=O)CC[C@H](NC(=O)CCCCCCCCCCCCCCCCC(=O)O)C(=O)O)C(=O)O)C(=O)O)CC1)C(=O)N[C@@H](CCN)C(=O)N(C)[C@@H](C)C(=O)N[C@@H](CCCNC(=N)N)C(=O)NCC(N)=O [Compound 38, C18DA-gGlu3-Sar12-AEPipAc-Tyr-Phe-NMeLeu-Nle-Dbu-NMeAla-Arg-Gly-NH2] | 33.8 nM |
| CCCC[C@H](NC(=O)[C@H](CC(C)C)N(C)C(=O)[C@H](Cc1ccccc1)NC(=O)[C@H](Cc1ccc(O)cc1)NC(=O)CN1CCN(CCNC(=O)CN(C)C(=O)CN(C)C(=O)CN(C)C(=O)CN(C)C(=O)CN(C)C(=O)CN(C)C(=O)CN(C)C(=O)CN(C)C(=O)CN(C)C(=O)CN(C)C(=O)CN(C)C(=O)CN(C)C(=O)CN(C)C(=O)CN(C)C(=O)CN(C)C(=O)CC[C@H](NC(=O)CC[C@H](NC(=O)CC[C@H](NC(=O)CCCCCCCCCCCCCCCCC(=O)O)C(=O)O)C(=O)O)C(=O)O)CC1)C(=O)N[C@@H](CCCN)C(=O)N(C)[C@@H](C)C(=O)N[C@@H](CCCNC(=N)N)C(=O)NCC(N)=O [Compound 22, C18DA-gGlu3-Sar15-AEPipAc-Tyr-Phe-NMeLeu-Nle-Orn-NMeAla-Arg-Gly-NH2] (HELM PEPTIDE1{[O=C(O)CCCCCCCCCCCCCCCCC(=O)[*:2]].[gGlu].[gGlu].[gGlu].[Sar].[Sar].[Sar].[Sar].[Sar].[Sar].[Sar].[Sar].[Sar].[Sar].[Sar].[Sar].[Sar].[Sar].[Sar].[O=C(CN1CCN(CCN[*:1])CC1)[*:2]].Y.F.[meL].[Nle].[Orn].[meA].R.G.[am]}$$$$V2.0) | 45.8 nM |
| CCCC[C@H](NC(=O)[C@H](CC(C)C)N(C)C(=O)[C@H](Cc1ccccc1)NC(=O)[C@H](Cc1ccc(O)cc1)NC(=O)CN1CCN(CCNC(=O)CN(C)C(=O)CN(C)C(=O)CN(C)C(=O)CN(C)C(=O)CN(C)C(=O)CN(C)C(=O)CN(C)C(=O)CN(C)C(=O)CN(C)C(=O)CN(C)C(=O)CN(C)C(=O)CN(C)C(=O)CC[C@H](NC(=O)CC[C@H](NC(=O)CC[C@H](NC(=O)CCCCCCCCCCCCCCCCC(=O)O)C(=O)O)C(=O)O)C(=O)O)CC1)C(=O)N[C@@H](CCCNC(=N)N)C(=O)N1CCC[C@H]1C(=O)N[C@@H](CCCNC(=N)N)C(=O)NCC(N)=O [Compound 25, C18DA-gGlu3-Sar12-AEPipAc-Tyr-Phe-NMeLeu-Nle-Arg-Pro-Arg-Gly-NH2] | 23.1 nM |
| CCCC[C@H](NC(=O)[C@H](CC(C)C)N(C)C(=O)[C@H](Cc1ccccc1)NC(=O)[C@H](Cc1ccc(O)cc1)NC(=O)CN1CCN(CCNC(=O)CN(C)C(=O)CN(C)C(=O)CN(C)C(=O)CN(C)C(=O)CN(C)C(=O)CN(C)C(=O)CN(C)C(=O)CN(C)C(=O)CN(C)C(=O)CN(C)C(=O)CN(C)C(=O)CN(C)C(=O)CC[C@H](NC(=O)CC[C@H](NC(=O)CC[C@H](NC(=O)CCCCCCCCCCCCCCCCC(=O)O)C(=O)O)C(=O)O)C(=O)O)CC1)C(=O)N[C@@H](CCCNC(=N)N)C(=O)N(C)[C@@H](C)C(=O)N[C@@H](CCCNC(=N)N)C(=O)NCC(N)=O [Compound 12, C18DA-gGlu3-Sar12-AEPipAc-Tyr-Phe-NMeLeu-Nle-Arg-NMeAla-Arg-Gly-NH2] | 36.2 nM |
| CCCC[C@H](NC(=O)[C@H](CC(C)C)N(C)C(=O)[C@H](Cc1ccccc1)NC(=O)[C@H](Cc1ccc(O)cc1)NC(=O)CN1CCN(CCNC(=O)CN(C)C(=O)CN(C)C(=O)CN(C)C(=O)CN(C)C(=O)CN(C)C(=O)CN(C)C(=O)CN(C)C(=O)CN(C)C(=O)CN(C)C(=O)CC[C@H](NC(=O)CC[C@H](NC(=O)CC[C@H](NC(=O)CCCCCCCCCCCCCCCCC(=O)O)C(=O)O)C(=O)O)C(=O)O)CC1)C(=O)N[C@@H](CCN)C(=O)N(C)[C@@H](C)C(=O)N[C@@H](CCCNC(=N)N)C(=O)NCC(N)=O [Compound 28, C18DA-gGlu3-Sar9-AEPipAc-Tyr-Phe-NMeLeu-Nle-Dbu-NMeAla-Arg-Gly-NH2] (HELM PEPTIDE1{[O=C(O)CCCCCCCCCCCCCCCCC(=O)[*:2]].[gGlu].[gGlu].[gGlu].[Sar].[Sar].[Sar].[Sar].[Sar].[Sar].[Sar].[Sar].[Sar].[O=C(CN1CCN(CCN[*:1])CC1)[*:2]].Y.F.[meL].[Nle].[Dab].[meA].R.G.[am]}$$$$V2.0) | 56.2 nM |
| CCCC[C@H](NC(=O)[C@H](CC(C)C)N(C)C(=O)[C@H](Cc1ccccc1)NC(=O)[C@H](Cc1ccc(O)cc1)NC(=O)CN1CCN(CCNC(=O)CN(C)C(=O)CN(C)C(=O)CN(C)C(=O)CN(C)C(=O)CN(C)C(=O)CN(C)C(=O)CN(C)C(=O)CN(C)C(=O)CN(C)C(=O)CN(C)C(=O)CN(C)C(=O)CN(C)C(=O)CC[C@H](NC(=O)CC[C@H](NC(=O)CC[C@H](NC(=O)CCCCCCCCCCCCCCCCC(=O)O)C(=O)O)C(=O)O)C(=O)O)CC1)C(=O)N[C@@H](CCCN)C(=O)N(C)[C@@H](C)C(=O)N[C@@H](CCCNC(=N)N)C(=O)NCC(N)=O [Compound 20, C18DA-gGlu3-Sar12-AEPipAc-Tyr-Phe-NMeLeu-Nle-Orn-NMeAla-Arg-Gly-NH2] | 23.7 nM |
| CCCC[C@H](NC(=O)[C@H](CC(C)C)N(C)C(=O)[C@H](Cc1ccccc1)NC(=O)[C@H](Cc1ccc(O)cc1)NC(=O)CN1CCN(CCNC(=O)CN(C)C(=O)CN(C)C(=O)CN(C)C(=O)CN(C)C(=O)CN(C)C(=O)CN(C)C(=O)CN(C)C(=O)CN(C)C(=O)CN(C)C(=O)CN(C)C(=O)CN(C)C(=O)CN(C)C(=O)CN(C)C(=O)CN(C)C(=O)CN(C)C(=O)CC[C@H](NC(=O)CC[C@H](NC(=O)CC[C@H](NC(=O)CCCCCCCCCCCCCCCCC(=O)O)C(=O)O)C(=O)O)C(=O)O)CC1)C(=O)N[C@@H](CCN)C(=O)N(C)[C@@H](C)C(=O)N[C@@H](CCCNC(=N)N)C(=O)NCC(N)=O [Compound 23, C18DA-gGlu3-Sar15-AEPipAc-Tyr-Phe-NMeLeu-Nle-Dbu-NMeAla-Arg-Gly-NH2] (HELM PEPTIDE1{[O=C(O)CCCCCCCCCCCCCCCCC(=O)[*:2]].[gGlu].[gGlu].[gGlu].[Sar].[Sar].[Sar].[Sar].[Sar].[Sar].[Sar].[Sar].[Sar].[Sar].[Sar].[Sar].[Sar].[Sar].[Sar].[O=C(CN1CCN(CCN[*:1])CC1)[*:2]].Y.F.[meL].[Nle].[Dab].[meA].R.G.[am]}$$$$V2.0) | 38.8 nM |

Source: US20240279278A1, “NMU RECEPTOR 2 AGONISTS” (Boehringer Ingelheim International GmbH, priority 2023, published 2024)
